# Measurements taken from US6504058B1 (priority 1997, dated 2003).
# Where two headings read alike, the source gives them in different places.
# What was measured:
# Pyricularia oryzae = type: in vivo, Pyricularia oryzae (on rice seedlings); details: 100 = 100% disease control, 0 = no control, # = significant activity
# [1] = system: Erysiphe graminis f. sp. tritici; assay: Test A: wheat powdery mildew, preventive spray on wheat seedlings, disease rating; type: in vivo, Erysiphe graminis f. sp. tritici (on wheat seedlings); details: 200 ppm test suspension sprayed to run-off (equivalent to 500 g/ha) on wheat seedlings; 100 = 100% disease control, 0 = no control; # = significant activity
# Description: (§1) Test compounds were first dissolved in acetone in an amount equal to 3% of the final volume and then suspended at a concentration of 200 ppm in purified water containing 250 ppm of the surfactant Trem® 014 (polyhydric alcohol esters). The resulting test suspensions were then used in the following test. Spraying these 200 ppm test suspensions to the point of run-off on the test plants is the equivalent of a rate of 500 g/ha.
# The test suspension was sprayed to the point of run-off on wheat seedlings. The following day the seedlings were inoculated with a spore dust of Erysiphe graminis f. sp. tritici, (the causal agent of wheat powdery mildew) and incubated in a growth chamber at 20° C. for 7 days, after which disease ratings were made.
# (§2) Results for Tests A-E are given in Table A. In the table, a rating of 100 indicates 100% disease control and a rating of 0 indicates no disease control (relative to the controls). A dash (-) indicates no test results. ND indicates disease control not determined due to phytotoxicity. # indicates significant activity.
# Puccinia recondita = assay: Test B: wheat leaf rust, preventive spray on wheat seedlings, disease rating; type: in vivo, Puccinia recondita (on wheat seedlings); details: 200 ppm test suspension sprayed to run-off (equivalent to 500 g/ha) on wheat seedlings; 100 = 100% disease control, 0 = no control; # = significant activity
# Description: as §1
# (§3) The test suspension was sprayed to the point of run-off on wheat seedlings. The following day the seedlings were inoculated with a spore suspension of Puccinia recondita (the causal agent of wheat leaf rust) and incubated in a saturated atmosphere at 20° C. for 24 h, and then moved to a growth chamber at 20° C. for 6 days, after which disease ratings were made.
# as §2
# Botrytis cinerea = assay: Test E: gray mold, preventive spray on cucumber seedlings, disease rating; type: in vivo, Botrytis cinerea (on cucumber seedlings); details: 200 ppm test suspension sprayed to run-off (equivalent to 500 g/ha) on cucumber seedlings; 100 = 100% disease control, 0 = no control; # = significant activity
# Description: as §1
# as §3, with “cucumber” for “wheat”, “Botrytis cinerea” for “Puccinia recondita”, “gray mold on many crops)” for “wheat leaf rust)”, “48” for “24”, “and” for “and then”, “5” for “6”
# as §2
# Phytophthora infestans = type: in vivo, Phytophthora infestans (on tomato seedlings); details: 200 ppm test suspension sprayed to run-off (equivalent to 500 g/ha) on tomato seedlings; 100 = 100% disease control, 0 = no control; # = significant activity
# [2] = 200 ppm test suspension sprayed to run-off (equivalent to 500 g/ha) on rice seedlings
# [3] = Tested at 40 ppm, rice seedlings
Molecule,Test C disease control rating (rice blast) (Pyricularia oryzae; [2]),Test A disease control rating (wheat powdery mildew) [1],Test B disease control rating (wheat leaf rust) (Puccinia recondita),Test E disease control rating (gray mold) (Botrytis cinerea),Test D disease control rating (potato and tomato late blight) (Phytophthora infestans),Test C disease control rating (rice blast) (Pyricularia oryzae; [3])
CC(COc1cc(Cl)ccc1F)NC(=O)C1(C)CC(C)(Cl)C1 (stereo not shown) [compound 51],100# (a rating of 100 indicates 100% disease control),83# %,0 (a rating of 0 indicates no disease control (relative to the controls)),0 (a rating of 0 indicates no disease control (relative to the controls)),0 (a rating of 0 indicates no disease control (relative to the controls)),–
CC(COc1cc(Br)ccc1C#N)NC(=O)C1(C)CC(C)(Cl)C1 (stereo not shown) [compound 48],99# %,96# %,85# %,0 (a rating of 0 indicates no disease control (relative to the controls)),47%,–
CC(COc1cc(F)ccc1F)NC(=O)C1(C)CC(C)(Br)C1 (stereo not shown) [compound 58],97# %,72%,0 (a rating of 0 indicates no disease control (relative to the controls)),0 (a rating of 0 indicates no disease control (relative to the controls)),0 (a rating of 0 indicates no disease control (relative to the controls)),–
CC(COc1ccc(Br)cc1C#N)NC(=O)C1(C)CC(C)(Cl)C1 (stereo not shown) [compound 37],0 (a rating of 0 indicates no disease control (relative to the controls)),0 (a rating of 0 indicates no disease control (relative to the controls)),25%,8%,23%,–
CC(NC(=O)C1(C)CC(Cl)(CCl)C1)c1ccc(Br)cc1 (stereo not shown) [compound 61],100# (a rating of 100 indicates 100% disease control),0 (a rating of 0 indicates no disease control (relative to the controls)),0 (a rating of 0 indicates no disease control (relative to the controls)),0 (a rating of 0 indicates no disease control (relative to the controls)),96# %,–
CC(COc1cc(F)ccc1F)NC(=O)C1(C(F)(F)F)CC(C)(Cl)C1 (stereo not shown) [compound 28],100# (a rating of 100 indicates 100% disease control),53%,0 (a rating of 0 indicates no disease control (relative to the controls)),0 (a rating of 0 indicates no disease control (relative to the controls)),0 (a rating of 0 indicates no disease control (relative to the controls)),–
CC(NC(=O)C1(C)CC(C)(Cl)C1)c1ccc(Cl)cc1Cl (stereo not shown) [compound 71],100# (a rating of 100 indicates 100% disease control),61%,0 (a rating of 0 indicates no disease control (relative to the controls)),0 (a rating of 0 indicates no disease control (relative to the controls)),100# (a rating of 100 indicates 100% disease control),–
CC(NC(=O)C1(C(F)(F)F)CC(C)(Cl)C1)c1ccc(Br)cc1 (stereo not shown) [compound 5],100# (a rating of 100 indicates 100% disease control),–,–,–,–,–
CC(NC(=O)C1(C)CC(Cl)(CCl)C1)c1ccc2ccccc2c1 (stereo not shown) [compound 64],53%,0 (a rating of 0 indicates no disease control (relative to the controls)),0 (a rating of 0 indicates no disease control (relative to the controls)),0 (a rating of 0 indicates no disease control (relative to the controls)),91# %,–
CC(NC(=O)C1(C(F)(F)F)CC(C)(Cl)C1)c1ccc(Cl)cc1Cl (stereo not shown) [compound 9],100# (a rating of 100 indicates 100% disease control),0 (a rating of 0 indicates no disease control (relative to the controls)),0 (a rating of 0 indicates no disease control (relative to the controls)),0 (a rating of 0 indicates no disease control (relative to the controls)),0 (a rating of 0 indicates no disease control (relative to the controls)),–
CC(NC(=O)C1(C)CC(C)(Br)C1)c1ccc(Br)cc1 (stereo not shown) [compound 17],74%,0 (a rating of 0 indicates no disease control (relative to the controls)),0 (a rating of 0 indicates no disease control (relative to the controls)),0 (a rating of 0 indicates no disease control (relative to the controls)),0 (a rating of 0 indicates no disease control (relative to the controls)),–
CC(NC(=O)C1(C)CC(F)(F)C1)c1ccc(Br)cc1 (stereo not shown) [compound 67],99# %,63%,0 (a rating of 0 indicates no disease control (relative to the controls)),19%,43%,–
CC(NC(=O)C1CC(C)(Cl)C1)c1ccc(Br)cc1 (stereo not shown) [compound 10],53%,74%,0 (a rating of 0 indicates no disease control (relative to the controls)),0 (a rating of 0 indicates no disease control (relative to the controls)),42%,–
CC(NC(=O)C1(C)CC(C)(Cl)C1)c1ccc2ccccc2c1 (stereo not shown) [compound 24],100# (a rating of 100 indicates 100% disease control),0 (a rating of 0 indicates no disease control (relative to the controls)),0 (a rating of 0 indicates no disease control (relative to the controls)),0 (a rating of 0 indicates no disease control (relative to the controls)),0 (a rating of 0 indicates no disease control (relative to the controls)),–
CC(COc1ccccc1F)NC(=O)C1(C(F)(F)F)CC(C)(Cl)C1 (stereo not shown) [compound 26],100# (a rating of 100 indicates 100% disease control),–,–,–,–,–
CC(NC(=O)C1(C(F)(F)F)CC(C)(Cl)C1)c1ccc(Cl)cc1 (stereo not shown) [compound 6],98# %,–,–,–,–,–
CC(NC(=O)C1(C(F)(F)F)CC(C)(Cl)C1)c1ccc(Br)cc1 (mixture of isomers) [compound 1],100# (a rating of 100 indicates 100% disease control),–,–,–,–,–
CC(CCc1ccccc1)NC(=O)C1(C(F)(F)F)CC(C)(Cl)C1 (mixture of isomers) [compound 2],64# %,–,–,–,–,–
CC(NC(=O)C1(Cl)CC(C)(Cl)C1)c1ccc(Br)cc1 (stereo not shown) [compound 15],–,–,–,–,–,94#* %
CC(NC(=O)C1(C(F)(F)F)CC(C)(Cl)C1)c1ccc(Cl)cc1 (stereo not shown) [Compound 7],100# (a rating of 100 indicates 100% disease control),–,–,–,–,–
CC(COc1ccccc1F)NC(=O)C1(C(F)(F)F)CC(C)(Cl)C1 (stereo not shown) [compound 25],97# %,–,–,–,–,–
"(R)-N-[1-(4-bromophenyl)ethyl]-3,3-difluoro-1-methylcyclobutanecarboxamide [Example 3]",82# %,–,–,–,–,–
CC(NC(=O)C1(C(F)(F)F)CC(C)(Cl)C1)c1ccc(Br)cc1 (stereo not shown) [compound 4],100# (a rating of 100 indicates 100% disease control),–,–,–,–,–
CC(NC(=O)C1(Cl)CC(C)(Cl)C1)c1ccc(Br)cc1 (stereo not shown) [compound 16],–,–,–,–,–,98#* %
